Experimental data from US20230134760A1, “CAR AND NRF2 DUAL ACTIVATOR AGENTS FOR CYCLOPHOSPHAMIDE-BASED AND DOXORUBICIN-BASED TREATMENTS OF CANCER” (priority 2020, published 2023).

What was measured:
BT549 cells [1] = test: HPH/BT549 co-culture, CPA cytotoxicity (CCK8); assay type: cell-based; conditions: HPH/BT549 coculture, DL7076 10 μM + CPA
Method: HPH were cultured in collagen-coated 24 well plates and pre-treated with vehicle control (0.1% DMSO), CITCO (1 μM) or DL7076 (5 μM or 10 μM) for 24 h. […] Following the 24 h pre-treatment, coverslips were combined in hepatocyte seeded wells and exposed to designated concentrations of cyclophosphamide in the presence or absence of DL7076 for various time intervals, as indicated.
(§1) H9c2 cells were seeded 0.8×10^5 in 24-well plates. Following cell attachment, a 2 h pre-treatment with vehicle control (0.1% DMSO), SFN (2.5 μM) or DL7076 (1 μM, 5 μM, or 10 μM) was done followed by doxorubicin (2.5 μM) exposure for 22 h. Co-culture cells were assembled and treated with cyclophosphamide and doxorubicin as indicated. A Cell Counting Kit-8 (Enzo) assay was carried out. Cell viability was described as a percent of vehicle control (0.1% DMSO). Cardiomyocyte, human iPSC-derived cardiomyocytes, and BT549 viability was determined with a 1 hr incubation of 6% CCK8 in WEM.

H9c2 cells [2] = test: Phosphorylated H2AX imaging, H9c2 cells from multi-organ co-culture; assay type: cell-based, rat; conditions: CPA/DOX + DL7076
Method: Additionally, HPH were cultured in collagen-coated 6-well plates and pre-treated as described in the previous co-culture system. BT549 and H9c2 cells were plated on similar modified coverslips 0.8×10^5 cells and allowed to attach for 24 hours during hepatocyte pre-treatment. […] Following pre-treatment, BT549 coverslips were inserted adjacent to H9c2 coverslips over the sandwich cultured HPH as depicted in FIG. 43a. […] Both BT549 and H9c2 cells were harvested at indicated time points and assess for viability, apoptosis, and DNA damage as detailed further. […] Cells were fixed using 4% paraformaldehyde in PBS for 15 minutes followed by permeabilization with 0.5% Triton-X 100 in PBS for an additional 15 minutes at room temperature. Prior to blocking with 5% Bovine Serum Albumin (BSA), 3 washes with PBS were done to remove excess Triton-X. Primary antibody to mouse anti-phospho-H2AX ([…], clone JBW301, Millipore, 1:500 dilution) was prepared in PBS with 3% BSA and 0.3% Triton-X 100 and incubated overnight. […] The coverslips were visualized at 10× magnification using fluorescence microscopy (Nikon Eclipse Ti) and the amount of phosphorylation was quantified as mean intensity using brightspot detection of quadruplet images of the whole well and normalized to the vehicle control (0.1% DMSO).

BT549 cells [3] = test: Multi-organ co-culture (BT549/HPH/H9c2), BT549 viability; assay type: cell-based; conditions: DL7076 10 μM
Method: Additionally, HPH were cultured in collagen-coated 6-well plates and pre-treated as described in the previous co-culture system. BT549 and H9c2 cells were plated on similar modified coverslips 0.8×10^5 cells and allowed to attach for 24 hours during hepatocyte pre-treatment. […] Following pre-treatment, BT549 coverslips were inserted adjacent to H9c2 coverslips over the sandwich cultured HPH as depicted in FIG. 43a. […] Both BT549 and H9c2 cells were harvested at indicated time points and assess for viability, apoptosis, and DNA damage as detailed further. H9c2 cells were seeded 0.8×10^5 in 24-well plates. […] A Cell Counting Kit-8 (Enzo) assay was carried out. Cell viability was described as a percent of vehicle control (0.1% DMSO).

hCAR = hCAR luciferase reporter assay in HepG2 cells (hCAR1+A, CYP2B6-2.2k reporter); assay type: cell-based, human
Method: HepG2 cells were cultured in 24-well plates (1×10^5 cells/well) and transfected with either a hCAR1+A expression vector (30 ng/well), a CYP2B6-2.2k reporter (60 ng/well) reporter, and pRL-TK (10 ng/well) or a ARE expression vector using X-tremeGENE 9 DNA Transfection Reagent (Sigma-Aldrich). After an overnight transfection, cells were treated with a vehicle control (0.1% DMSO), RIF (10 μM), DL7076 (1 μM, 5 μM, and 10 μM) for 24 hours. Cell lysates were assayed for luciferase activity and normalized against the activity of the Renilla luciferase using a Dual-Luciferase Kit (Promega).

H9c2 cells [4] = test: Cell viability assay, DOX-induced toxicity in H9c2 cells; assay type: cell-based, rat
Method: as §1

MDA-MB-231 cells = test: Oxidative stress imaging (DFDA) in MDA-MB-231 cells; assay type: cell-based; conditions: MDA-MB-231, DL7076 5 μM + DOX
BT549 cells [5] = test: Oxidative stress imaging (DFDA) in BT549 cells; assay type: cell-based; conditions: BT549, DL7076 5 μM + DOX

O=C(NCCN=C=S)c1c(-c2ccc3ccccc3c2)nc2sccn12 [DL7076, N-(2-Isothiocyanatoethyl)-6-(naphthalen-2-yl)imidazo[2,1-b]thiazole-5-carboxamide]
CPA cytotoxicity in BT549 cells with cotreatment (BT549 cells [1]): significantly enhanced the cytotoxicity of CPA
H2AX phosphorylation (DNA damage) (H9c2 cells [2]): a measured decrease in histone H2A phosphorylation
CPA/DOX cytotoxicity in BT549 cells (BT549 cells [3]): selectively enhanced CPA/DOX regimen cytotoxicity in BT549 cells
CAR1+A activation, luciferase reporter (hCAR; HepG2, 10 μM, 24 hours, vs CITCO 1 μM): activate CAR1+A in a comparable manner to the prototypical CAR activator, CITCO
hCAR luciferase activity (efficacy among compound hybrids) (hCAR; HepG2, screening, FIG. 37a): highest efficacy
cytotoxicity without DOX (H9c2 cells [4]; H9c2, 1, 5, 10 μM): no cytotoxicity
reversal of DOX-induced cardiotoxicity (viability) (H9c2 cells [4]; H9c2, 2 h pretreatment, 22 h cotreatment with DOX 2.5 μM): concentration dependent reversal in the DOX-induced cardiotoxicity
ROS with cotreatment (MDA-MB-231 cells): significant ROS without reduction
ROS with cotreatment (BT549 cells [5]): significant ROS without reduction
